# According to PubChem BioAssay (NCI):
#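 In this assay, cells in 96-well plates receive the compound at five concentrations for 48 hours. Endpoints are linearly interpolated between the surrounding concentrations. GI50 is the concentration that inhibits growth by half. TGI: concentration producing complete growth inhibition.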
# Tests used:
# Experiment in all cases: NCI-60 cell line screen, 48 h
# OVCAR-3 ovarian = tested on: OVCAR-3 ovarian
# NCI-H460 lung = tested on: NCI-H460 lung
# RXF 393 renal = tested on: RXF 393 renal
# PC-3 prostate = tested on: PC-3 prostate
# UACC-62 melanoma = tested on: UACC-62 melanoma
# NCI-H226 lung = tested on: NCI-H226 lung
# MDA-MB-231 breast = tested on: MDA-MB-231 breast
# HOP-62 NSCLC = tested on: HOP-62 NSCLC
# SK-MEL-28 melanoma = tested on: SK-MEL-28 melanoma
# SF-268 CNS = tested on: SF-268 CNS
Structure (SMILES),TGI (OVCAR-3 ovarian),TGI (NCI-H460 lung),TGI (RXF 393 renal),TGI (PC-3 prostate),TGI (UACC-62 melanoma),TGI (NCI-H226 lung),TGI (MDA-MB-231 breast),TGI (HOP-62 NSCLC),TGI (SK-MEL-28 melanoma),TGI (SF-268 CNS),GI50 (OVCAR-3 ovarian),GI50 (NCI-H460 lung),GI50 (RXF 393 renal),GI50 (PC-3 prostate),GI50 (UACC-62 melanoma),GI50 (MDA-MB-231 breast),GI50 (HOP-62 NSCLC),GI50 (SK-MEL-28 melanoma),GI50 (SF-268 CNS)
Cc1sc2ccccc2[n+]1CCC(=O)O,> 100 µM,> 100 µM,> 100 µM,> 100 µM,> 100 µM,> 100 µM,> 100 µM,> 100 µM,> 100 µM,> 100 µM,,,,,,,,,
CC1(C)Oc2ccc(NC(=O)CCC(N)C(=O)O)cc2O1 (configuration not stated),> 100 µM,> 100 µM,> 100 µM,> 100 µM,> 100 µM,> 100 µM,> 100 µM,> 100 µM,> 100 µM,,,,,,,,,,
COc1ccc(/C=C2\N=C(c3ccccc3)N(C3Nc4cc5c(cc4S3)NC(N3C(=O)/C(=C/c4ccc(OC)cc4)N=C3c3ccccc3)S5)C2=O)cc1 (configuration not stated),> 100 µM,> 100 µM,> 100 µM,> 100 µM,,> 100 µM,> 100 µM,> 100 µM,> 100 µM,> 100 µM,,,,,,,,,
COc1ccc2c(c1)/c(=C/c1ccc(N(C)C)cc1)c1cc(-c3ccccc3)[n+](C)n12,,,1.64 µM,1.09 µM,2.01 µM,0.785 µM,1.08 µM,2.71 µM,2.31 µM,1.1 µM,,,,,,,,,
Cc1c(-c2ccccc2)c(C#N)c2nnc(C(N)=O)c(N)n12,> 100 µM,> 100 µM,> 100 µM,> 100 µM,> 100 µM,,> 100 µM,> 100 µM,> 100 µM,> 100 µM,,,,,,,,,
CC(C)CNC(=O)Cn1c(-c2ccccc2)cc2ccccc21,> 100 µM,> 100 µM,> 100 µM,> 100 µM,> 100 µM,> 100 µM,,> 100 µM,> 100 µM,> 100 µM,,,,,,,,,
Nc1cc(N2CCCC2)nc(=O)n1Cc1ccccc1,,> 100 µM,,> 100 µM,,> 100 µM,> 100 µM,> 100 µM,,> 100 µM,,,,,,,,,
CC(=O)c1cc2c(s1)C(=O)c1ccccc1C2=O,11.1 µM,> 33.4 µM,28 µM,> 100 µM,7.01 µM,11.4 µM,41.8 µM,> 100 µM,36.2 µM,16 µM,,,,,,,,,
CSc1c(C#N)c2n(c3ccccc13)c1ccccc1[n+]2C,> 100 µM,> 100 µM,,78.5 µM,47.1 µM,,60.1 µM,52.7 µM,> 100 µM,> 100 µM,,,,,,,,,
CCCCOCn1c(=O)[nH]c(=O)c2cc(Br)ccc21,> 100 µM,,> 100 µM,> 100 µM,> 100 µM,46.9 µM,> 100 µM,,> 100 µM,,,,,,,,,,
CSc1cc(N)ccc1N=Nc1ccc(S(N)(=O)=O)cc1,68.5 µM,71.6 µM,> 100 µM,> 100 µM,32 µM,50.4 µM,57.9 µM,79 µM,> 100 µM,> 100 µM,,,,,,,,,
Cn1c2ccccc2c2c3c(c4c5ccccc5n(C)c4c21)C(=O)c1ccccc1C3=O,> 100 µM,> 100 µM,48.6 µM,> 100 µM,> 100 µM,> 100 µM,79.1 µM,> 100 µM,> 100 µM,,,,,,,,,,
COc1cc(S(=O)(=O)Nc2ccc(-c3csc(N4C(=O)CSC4c4ccccc4)n3)cc2)ccc1Cl (configuration not stated),> 100 µM,> 100 µM,64.5 µM,> 100 µM,39.6 µM,> 100 µM,,> 100 µM,65.1 µM,> 100 µM,,,,,,,,,
Cc1cc(C)n(CN(Cn2nc(C)cc2C)C2CCCCC2)n1,56.9 µM,> 100 µM,50.9 µM,60 µM,41.7 µM,,64.2 µM,69.6 µM,42.5 µM,91.3 µM,,,,,,,,,
COc1cc(/C=C2/N=C(c3ccccc3)N(C3=NNC4(C(=O)N3)c3ccccc3-c3ccccc34)NC2=O)ccc1O,53.5 µg/mL,49.1 µg/mL,48.6 µg/mL,79.6 µg/mL,48.3 µg/mL,,44.5 µg/mL,56.2 µg/mL,60.4 µg/mL,66.7 µg/mL,24.8 µg/mL,28 µg/mL,26.7 µg/mL,29.5 µg/mL,27.4 µg/mL,19.3 µg/mL,23.4 µg/mL,31.3 µg/mL,27.5 µg/mL
CC(=O)O[C@H]1C(=O)[C@@]2(C)[C@H]([C@H](OC(=O)c3ccccc3)[C@]3(O)C[C@H](OC(=O)[C@H](O)[C@@H](NC(=O)CC(C)(C)C)c4ccccc4)C(C)=C1C3(C)C)C1(OC(C)=O)CO[C@@H]1C[C@@H]2O (some centres not stated),,> 10 µM,0.148 µM,> 10 µM,> 10 µM,> 5.23 µM,> 10 µM,,> 10 µM,> 6.19 µM,,,,,,,,,
COc1cc2c(cc1OC)-c1c3c(cc4c1[C@@H](C2)N(C)CC4)OCO3,44.6 µM,14.3 µM,19.2 µM,,20.2 µM,23 µM,,20.7 µM,24.9 µM,38.2 µM,,,,,,,,,
Cn1nc(S(N)(=O)=O)s/c1=N/C(N)=S,> 100 µM,> 100 µM,> 100 µM,,> 100 µM,> 100 µM,> 100 µM,> 100 µM,> 100 µM,> 100 µM,,,,,,,,,
C[n+]1c2ccccc2c(C(=O)Nc2ccc(S(=O)(=O)N=C(N)N)cc2)c2ccccc21,> 100 µM,> 100 µM,,> 100 µM,> 100 µM,> 100 µM,76.5 µM,> 100 µM,> 100 µM,> 100 µM,,,,,,,,,
COc1cc(C2SCC(=O)N2c2ccc(Oc3ccc(Cl)cc3)c(Cl)c2)cc(OC)c1OC (configuration not stated),31.1 µM,> 100 µM,,28.9 µM,30.9 µM,31.9 µM,40.3 µM,35.2 µM,35 µM,31 µM,,,,,,,,,
O=C(CNc1ccc(Cl)cc1Cl)NC1C=Cc2ccc(S(=O)(=O)Nc3ccc(Cl)cc3Cl)cc2C1=O (configuration not stated),> 100 µM,> 100 µM,,> 100 µM,> 100 µM,> 100 µM,> 100 µM,> 100 µM,> 100 µM,> 100 µM,,,,,,,,,
